# Experiments:
# [1] = target: PCSK9 (Homo sapiens, UniProt Q8NBP7, G670E/V474I); test: biochemical
# [2] = target: GSK3β (Glycogen synthase kinase-3 beta) (Homo sapiens, UniProt P49841); test: Assay 6 GSK3β assay (ThermoFisher Z-Lyte FRET); assay type: biochemical; conditions: ATP Conc: 10 μM, geometric mean; read-out: Assay 6 (GSK3β FRET-Z-Lyte Cr) GMean IC50
# Experimental: This assay measures the activity of the compounds at GSK33 (Glycogen synthase kinase-3 beta).
# The test compounds were screened in 1% DMSO (final) in the well. For 10 point titrations, 3-fold serial dilutions are conducted from the starting concentration of 10 PM.
# Bar-coded Corning, low volume NBS, black 384-well plate • 1. 2.5 μL—4× Test Compound or 100 nL 100× plus 2.4 μL kinase buffer • 2. 5 μL—2× Peptide/Kinase Mixture • 3. 2.5 μL—4×ATP Solution • 4. 30-second plate shake • 5. 60-minute Kinase Reaction incubation at room temperature • 6. 5 μL—Development Reagent Solution • 7. 30-second plate shake • 8. 60-minute Development Reaction incubation at room temperature • 9. Read on fluorescence plate reader and analyse the data
# In step 2, the 2×GSK3β (GSK3 beta)/Ser/Thr (Glycogen synthase kinase-3 beta/Serine/Threonine) 09 mixture is prepared in 50 mM HEPES (4-(2-hydroxyethyl)-1-piperazineethanesulfonic acid) pH 7.5, 0.01% BRIJ-35, 10 mM MgCl2, 1 mM EGTA (egtazic acid). The final 10 μL Kinase Reaction consists of 0.22-0.92 ng GSK3β (GSK3 beta) and 2 PM Ser/Thr 09 in 50 mM HEPES pH 7.5, 0.01% BRIJ-35, 10 mM MgCl2, 1 mM EGTA.
# In step 3 the ATP Solution is diluted to a 4× working concentration in Kinase Buffer (50 mM HEPES pH 7.5, 0.01% BRIJ-35, 10 mM MgCl2, 1 mM EGTA).
# In Step 6 the Development Reagent is diluted 1:512 in Development Buffer (10× Novel PKC Lipid Mix: 2 mg/mL Phosphatidyl Serine, 0.2 mg/mL DAG in 20 mM HEPES, pH 7.4, 0.3% CHAPS).
# SelectScreen® Kinase Profiling Service uses XLfit from IDBS. The dose response curve is curve fit to model number 205 (sigmoidal dose-response model).
# [3] = target: T1, potassium ion channel hERG (Homo sapiens, UniProt Q12809); test: Assay 5 hERG assay (patch clamp, CHO cells over-expressing hERG); assay type: cell-based; conditions: SyncroPatch 384PE, room temperature, geometric mean, read-out: Assay 5 (hERG Hu CHO if EPh CR-Syncro) GMean IC50
# T1 construct: expressed in transfected cells; host or cells: Chinese hamster ovary K1 (CHO)
# T1 sequence (Q12809 whole entry): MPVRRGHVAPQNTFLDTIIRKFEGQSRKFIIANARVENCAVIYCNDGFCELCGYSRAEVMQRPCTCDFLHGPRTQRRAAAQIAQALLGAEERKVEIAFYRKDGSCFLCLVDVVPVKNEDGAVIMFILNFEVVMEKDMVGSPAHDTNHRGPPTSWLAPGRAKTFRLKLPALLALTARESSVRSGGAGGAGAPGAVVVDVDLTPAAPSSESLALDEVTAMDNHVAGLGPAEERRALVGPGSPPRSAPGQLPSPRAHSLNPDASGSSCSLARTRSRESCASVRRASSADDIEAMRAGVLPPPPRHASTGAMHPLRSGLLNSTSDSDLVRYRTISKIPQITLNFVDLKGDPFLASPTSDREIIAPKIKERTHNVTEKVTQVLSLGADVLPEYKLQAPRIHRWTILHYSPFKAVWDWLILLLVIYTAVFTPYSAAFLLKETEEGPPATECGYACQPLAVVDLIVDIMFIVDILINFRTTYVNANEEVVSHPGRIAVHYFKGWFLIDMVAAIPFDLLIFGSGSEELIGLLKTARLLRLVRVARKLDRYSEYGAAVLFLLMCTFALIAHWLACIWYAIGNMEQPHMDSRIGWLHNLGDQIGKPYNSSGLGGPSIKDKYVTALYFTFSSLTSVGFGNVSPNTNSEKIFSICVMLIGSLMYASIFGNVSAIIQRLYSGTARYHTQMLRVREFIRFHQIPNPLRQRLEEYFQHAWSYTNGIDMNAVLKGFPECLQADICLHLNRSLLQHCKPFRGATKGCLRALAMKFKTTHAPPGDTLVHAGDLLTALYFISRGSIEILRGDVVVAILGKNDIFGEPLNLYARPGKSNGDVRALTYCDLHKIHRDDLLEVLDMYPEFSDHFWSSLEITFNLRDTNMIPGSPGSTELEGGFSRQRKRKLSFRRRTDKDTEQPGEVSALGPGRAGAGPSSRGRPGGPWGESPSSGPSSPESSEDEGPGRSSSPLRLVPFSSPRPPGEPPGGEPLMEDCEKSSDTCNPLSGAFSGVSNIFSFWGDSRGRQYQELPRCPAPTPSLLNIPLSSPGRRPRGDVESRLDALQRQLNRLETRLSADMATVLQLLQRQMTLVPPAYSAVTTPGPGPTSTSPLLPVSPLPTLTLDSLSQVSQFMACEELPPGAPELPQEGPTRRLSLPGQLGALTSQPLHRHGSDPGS
# Experimental: This assay (human Ether-d-go-go-Related Gene) measures activity of the compounds at the potassium ion channel hERG (human Ether-d-go-go-Related Gene).
# Experiments were performed on the SyncroPatch 384PE high throughput patch clamp platform at room temperature and medium resistance chips with 4 patch holes per site. Chinese hamster ovary K1 (CHO) cell lines over-expressing the ion channel of choice (hERG) were used in assay-ready format and kept in liquid nitrogen or were used from live culture. Cells were either thawed and diluted in HBSS or were detached from flasks and resuspended in HBSS. HBSS comprised 140 mM NaCl, 4 mM KCl, 10 mM HEPES and 5 mM Glucose (pH7.4). The internal patch clamp solution was KF 120 mM, KCl 20 mM, HEPES 10 mM, EGTA 10 mM, and 25 PM Escin (pH 7.2). After the sealing process was complete, the external solution was exchanged for external patch clamp solution comprising NaCl 80 mM, KCl 4 mM, HEPES 10 mM, CaCl2 2 mM, MgCl2 1 mM, glucose 5 mM, and NMDG 60 mM (pH 7.4). All solutions were stored at room temperature, except Escin, which was stored at 4° C. All test compounds were dispensed in greiner-bio 384 well plates and tested in a 6 point cumulative assay (final DMSO concentration 0.33%). Only wells that passed previously agreed acceptance criteria for this platform were used in this analysis (30 MegaOhm seal resistance, Z prime >0.4 and current size >0.2 nA). […]
# PCSK9, sequence (Q8NBP7 with tags, fused parts or gaps V474I/G670E): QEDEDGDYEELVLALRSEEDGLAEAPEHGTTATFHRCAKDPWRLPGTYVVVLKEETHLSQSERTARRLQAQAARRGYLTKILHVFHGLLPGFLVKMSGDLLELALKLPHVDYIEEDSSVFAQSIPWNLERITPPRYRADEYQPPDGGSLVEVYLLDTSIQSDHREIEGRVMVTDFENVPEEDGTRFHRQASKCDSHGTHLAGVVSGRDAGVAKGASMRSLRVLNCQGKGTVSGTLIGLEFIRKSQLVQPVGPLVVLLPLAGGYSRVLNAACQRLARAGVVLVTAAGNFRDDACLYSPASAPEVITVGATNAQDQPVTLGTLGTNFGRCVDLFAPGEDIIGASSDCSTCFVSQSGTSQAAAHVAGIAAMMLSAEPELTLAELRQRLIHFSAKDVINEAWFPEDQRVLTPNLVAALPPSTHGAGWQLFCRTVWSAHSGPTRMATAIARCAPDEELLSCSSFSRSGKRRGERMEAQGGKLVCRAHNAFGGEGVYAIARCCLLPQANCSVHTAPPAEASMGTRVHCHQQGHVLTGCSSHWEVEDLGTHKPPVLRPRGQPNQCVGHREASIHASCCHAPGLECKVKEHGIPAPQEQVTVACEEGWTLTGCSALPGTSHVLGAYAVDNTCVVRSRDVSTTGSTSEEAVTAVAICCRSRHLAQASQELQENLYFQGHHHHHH
# GSK3β (Glycogen synthase kinase-3 beta), sequence (P49841 whole entry): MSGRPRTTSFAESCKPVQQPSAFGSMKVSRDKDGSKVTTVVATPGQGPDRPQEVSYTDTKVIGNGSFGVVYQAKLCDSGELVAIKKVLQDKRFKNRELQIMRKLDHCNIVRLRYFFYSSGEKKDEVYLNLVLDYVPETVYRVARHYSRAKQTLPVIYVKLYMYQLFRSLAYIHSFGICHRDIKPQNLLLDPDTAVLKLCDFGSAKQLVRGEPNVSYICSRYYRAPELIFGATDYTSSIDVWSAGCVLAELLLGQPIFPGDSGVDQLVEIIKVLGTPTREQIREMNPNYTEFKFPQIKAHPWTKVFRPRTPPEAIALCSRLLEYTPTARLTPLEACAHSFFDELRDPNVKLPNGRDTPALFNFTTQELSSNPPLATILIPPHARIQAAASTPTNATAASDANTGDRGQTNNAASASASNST
smiles,measurement,setting,value
"Cc1cnc(N[C@H]2CC[C@H](Nc3ccc(-n4ccc(C#N)cc4=O)cn3)C2)nn1 [Example 183, 6′-(((1S,3S)-3-((6-Methyl-1,2,4-triazin-3-yl)amino)cyclopentyl)amino)-2-oxo-2H-[1,3′-bipyridine]-4-carbonitrile]",IC50,[1],0.03 µM
same,IC50,[2],> 10 µM
same,IC50,[3],> 40.1 µM
Cc1cnc(N[C@H]2CC[C@H](Nc3ccc(-n4nc(Cl)ccc4=O)cn3)C2)nn1 [Example 222],IC50,[1],0.0083 µM
same,IC50,[2],> 10 µM
same,IC50,[3],> 40.1 µM
"Cc1cnc(N[C@H]2CC[C@H](Nc3ccc(-c4ccccc4C#N)cn3)C2)nn1 [Example 247, 2-(6-(((1S,3S)-3-((6-Methyl-1,2,4-triazin-3-yl)amino)cyclopentyl)amino)pyridin-3-yl)benzonitrile]",IC50,[1],0.075 µM
same,IC50,[2],> 10 µM
same,IC50,[3],6.6 µM
Cc1cnc(N[C@H]2CC[C@H](Nc3ccc(-c4ncccc4C)cn3)C2)nn1 [Example 248],IC50,[1],0.013 µM
same,IC50,[2],> 10 µM
same,IC50,[3],> 40.1 µM
Cc1cnc(N[C@H]2CC[C@H](Nc3ccc(-n4nc(C)cc4C)cn3)C2)nn1 [Example 249],IC50,[1],0.016 µM
same,IC50,[2],> 10 µM
same,IC50,[3],> 40.1 µM
"Cc1cnc(N[C@H]2CC[C@H](Nc3ccc(-n4c(C)nc(C)c4C#N)cn3)C2)nn1 [Example 250, 2,4-Dimethyl-1-(6-(((1S,3S)-3-((6-methyl-1,2,4-triazin-3-yl)amino)cyclopentyl)amino)pyridin-3-yl)-1H-imidazole-5-carbonitrile]",IC50,[1],0.108 µM
same,IC50,[2],> 10 µM
same,IC50,[3],> 40.1 µM
"Cc1nnc(N[C@H]2CC[C@H](Nc3ccc(-n4ccccc4=O)cn3)C2)[nH]c1=O [Example 254, 6′-(((1S,3S)-3-((6-Methyl-5-oxo-4,5-dihydro-1,2,4-triazin-3-yl)amino)cyclopentyl)amino)-2H-[1,3′-bipyridin]-2-one]",IC50,[1],0.33 µM
same,IC50,[2],6.14 µM
same,IC50,[3],> 40.1 µM
"O=c1ccccn1-c1ccc(N[C@H]2CC[C@H](Nc3ncc(Cl)nn3)C2)nc1 [Example 255, 6′-(((1S,3S)-3-((6-Chloro-1,2,4-triazin-3-yl)amino)cyclopentyl)amino)-2H-[1,3′-bipyridin]-2-one]",IC50,[1],0.078 µM
same,IC50,[2],5.33 µM
same,IC50,[3],> 40.1 µM
"CN(C)c1cnc(N[C@H]2CC[C@H](Nc3ccc(-n4ccccc4=O)cn3)C2)nn1 [Example 256, 6′-(((1S,3S)-3-((6-(Dimethylamino)-1,2,4-triazin-3-yl)amino)cyclopentyl)amino)-2H-[1,3′-bipyridin]-2-one]",IC50,[1],0.119 µM
same,IC50,[2],1.68 µM
same,IC50,[3],> 40.1 µM
"O=c1ccccn1-c1ccc(N[C@H]2CC[C@H](Nc3ncc(-c4ccn[nH]4)nn3)C2)nc1 [Example 257, 6′-(((1S,3S)-3-((6-(1H-Pyrazol-5-yl)-1,2,4-triazin-3-yl)amino)cyclopentyl)amino)-2H-[1,3′-bipyridin]-2-one]",IC50,[1],0.062 µM
same,IC50,[2],2.81 µM
same,IC50,[3],> 40.1 µM
"CCSc1cnc(N[C@H]2CC[C@H](Nc3ccc(-n4ccccc4=O)cn3)C2)nn1 [Example 258, 6′-(((1S,3S)-3-((6-(Ethylthio)-1,2,4-triazin-3-yl)amino)cyclopentyl)amino)-2H-[1,3′-bipyridin]-2-one]",IC50,[1],0.015 µM
same,IC50,[2],0.237 µM
same,IC50,[3],26.1 µM
"CC(=O)c1cnc(N[C@H]2CC[C@H](Nc3ccc(-n4ccccc4=O)cn3)C2)nn1 [Example 260, 6′-(((1S,3S)-3-((6-Acetyl-1,2,4-triazin-3-yl)amino)cyclopentyl)amino)-2H-[1,3′-bipyridin]-2-one]",IC50,[1],0.101 µM
same,IC50,[2],1.32 µM
same,IC50,[3],> 40 µM
"Cc1cnc(N[C@H]2CC[C@H](Nc3ccc(-n4nccc(C#N)c4=O)cn3)C2)nn1 [Example 277, 2-(6-(((1S,3S)-3-((6-Methyl-1,2,4-triazin-3-yl)amino)cyclopentyl)amino)pyridin-3-yl)-3-oxo-2,3-dihydropyridazine-4-carbonitrile]",IC50,[1],0.0049 µM
same,IC50,[2],9.56 µM
same,IC50,[3],> 40.1 µM
"COc1cccnc1-c1ccc(N[C@H]2CC[C@H](Nc3ncc(C)nn3)C2)nc1 [Example 304, (1S,3S)—N′-(3-Methoxy-[2,3′-bipyridin]-6′-yl)-N^3-(6-methyl-1,2,4-triazin-3-yl)cyclopentane-1,3-diamine]",IC50,[1],0.096 µM
same,IC50,[2],> 10 µM
same,IC50,[3],> 40.1 µM
"COc1cccc(-c2ccc(N[C@H]3CC[C@H](Nc4ncc(C)nn4)C3)nc2)n1 [Example 305, (1S,3S)—N′-(6-Methoxy-[2,3′-bipyridin]-6′-yl)-N^3-(6-methyl-1,2,4-triazin-3-yl)cyclopentane-1,3-diamine]",IC50,[1],0.091 µM
same,IC50,[2],> 10 µM
same,IC50,[3],3.2 µM
"COc1ccccc1-c1ccc(N[C@H]2CC[C@H](Nc3ncc(C)nn3)C2)nc1 [Example 306, (1S,3S)—N′-(5-(2-Methoxyphenyl)pyridin-2-yl)-N^3-(6-methyl-1,2,4-triazin-3-yl)cyclopentane-1,3-diamine]",IC50,[1],0.302 µM
same,IC50,[2],> 10 µM
same,IC50,[3],4.5 µM
"COc1cccc(OC)c1-c1ccc(N[C@H]2CC[C@H](Nc3ncc(C)nn3)C2)nc1 [Example 307, (1S,3S)—N^1-(5-(2,6-Dimethoxyphenyl)pyridin-2-yl)-N^3-(6-methyl-1,2,4-triazin-3-yl)cyclopentane-1,3-diamine]",IC50,[1],1.66 µM
same,IC50,[2],> 10 µM
same,IC50,[3],23.3 µM
"COc1cccc(F)c1-c1ccc(N[C@H]2CC[C@H](Nc3ncc(C)nn3)C2)nc1 [Example 308, (1S,3S)—N′-(5-(2-Fluoro-6-methoxyphenyl)pyridin-2-yl)-N^3-(6-methyl-1,2,4-triazin-3-yl)cyclopentane-1,3-diamine]",IC50,[1],0.051 µM
same,IC50,[2],> 10 µM
same,IC50,[3],12 µM
"Cc1cnc(N[C@H]2CC[C@H](Nc3ccc(-c4ccccn4)cn3)C2)nn1 [Example 309, (1S,3S)—N′-([2,3′-Bipyridin]-6′-yl)-N^3-(6-methyl-1,2,4-triazin-3-yl)cyclopentane-1,3-diamine]",IC50,[1],0.534 µM
same,IC50,[2],> 10 µM
same,IC50,[3],11.4 µM
"Cc1cnc(N[C@H]2CC[C@H](Nc3ccc(-n4cc5ccccc5n4)cn3)C2)nn1 [Example 312, (1S,3S)—N^1-(5-(2H-Indazol-2-yl)pyridin-2-yl)-N^3-(6-methyl-1,2,4-triazin-3-yl)cyclopentane-1,3-diamine]",IC50,[1],0.037 µM
same,IC50,[2],> 10 µM
same,IC50,[3],4.2 µM
"Cc1cnc(N[C@H]2CC[C@H](Nc3ccc(-n4nc(C)nc4C)cn3)C2)nn1 [Example 313, (1S,3S)—N^1-(5-(3,5-dimethyl-1H-1,2,4-triazol-1-yl)pyridin-2-yl)-N^3-(6-methyl-1,2,4-triazin-3-yl)cyclopentane-1,3-diamine]",IC50,[1],0.016 µM
same,IC50,[2],> 10 µM
same,IC50,[3],> 40.1 µM
"Cc1cnc(N[C@H]2CC[C@H](Nc3ccc(-c4nc(C)oc4C)cn3)C2)nn1 [Example 314, (1S,3S)—N^1-(5-(2,5-Dimethyloxazol-4-yl)pyridin-2-yl)-N^3-(6-methyl-1,2,4-triazin-3-yl)cyclopentane-1,3-diamine]",IC50,[1],0.11 µM
same,IC50,[2],> 10 µM
same,IC50,[3],25.7 µM

# Reference: patent publication US20240228469A1, “PCSK9 INHIBITORS AND METHODS OF USE THEREOF” (AstraZeneca AB, priority 2022, published 2024)
